Test results as given in patent publication US8470889B2 (TRT Pharma Inc., priority 2008, dated 2013).
Like-named read-outs stand apart in the source and are kept apart here. Blank lines part the entries; values can stand above or below the molecule they belong to.

Columns and labels:
C4-2B cells = assay: MTT cell growth inhibition, C4-2B;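 note: cells treated with a dilution series for 72 h, then MTT added and absorbance read at 600 nm, IC50 fitted from dose-response curves by nonlinear regression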
Method: (§1) MDA PCa 2b was seeded at the same density in medium BRFF-HPC1 (Athena Enzyme Systems, Baltimore, Md., USA) supplemented with 20% FBS. After overnight incubation, the medium was changed to a fresh medium containing different concentrations of test compounds diluted from stock DMSO solution. The final concentration of DMSO is 0.5%. After 72 h of incubation with test compounds, 20 μL of 3-(4,5-dimethyl thiazol-2-yl)-2,5-diphenyltetrazolium bromide (MTT) solution (5 mg/mL in PBS) were added to each well and incubated further for 2 h. Next, the supernatant was aspirated and the MTT formazan formed by metabolically viable cells was dissolved in 100 μL of isopropanol. The plates were mixed for 30 min, and the absorbance was measured at 600 nm on a plate reader (FLUOstar OPTIMA, BMG LabTech). All samples were in triplicate. The IC50 values were determined from dose-response curves by nonlinear regression using PRISM v5.00 (GraphPad Software Inc, La Jolla, Calif., USA).
(§2) The in vitro cytotoxicity of 1-20 were evaluated by MTT assays in a panel of prostate cancer cell lines, including LNCaP, MDA PCa 2b, 22Rv1, C4-2B and PC-3.

22Rv1 cells = assay: MTT cell growth inhibition, 22Rv1; settings: read-out: Cellular IC50 (μM) 22Rv1, MTT
Method: as §1, §2

LNCaP cells = assay: MTT cell growth inhibition, LNCaP;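 note: MTT formazan absorbance at 600 nm read after 72 h of compound exposure, IC50 fitted by nonlinear regression of dose-response curves, samples run in triplicate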
PC-3 cells = assay: MTT cell growth inhibition, PC-3; settings: for Cellular IC50 (μM) PC3: Table 8
[1] = read-out: Cellular IC50 (μM) C4-2B, Table 8
[2] = read-out: Cellular IC50 (μM) LNCaP, Table 8
[3] = read-out: Cellular IC50 (μM) PC3, Table 8
[4] = read-out: Cellular IC50 (μM) C4-2B, Table 9
[5] = read-out: Cellular IC50 (μM) LNCaP, Table 9
[6] = read-out: Cellular IC50 (μM) PC-3, Table 9
[7] = read-out: Cellular IC50 (μM) C4-2B, Table 2, 72 h
[8] = read-out: Cellular IC50 (μM) LNCaP, Table 2, 72 h
[9] = read-out: Cellular IC50 (μM) PC-3, Table 2, 72 h, max tested 50 μM (β-ionone 150 μM)
[10] = read-out: IC50 (μM) C4-2B, Table 1, 72 h
[11] = read-out: IC50 (μM) LNCaP, Table 1, 72 h
[12] = read-out: IC50 (μM) PC-3, Table 1, 72 h, maximum tested concentration 50 μM

Structure (SMILES): CC1(C)CCC(O)C=C1/C=C/C(=O)/C=C/c1ccnc2ccccc12 (stereo not shown) [Compound B96]
IC50 (C4-2B cells; [4]): 1.5 µM
IC50 (22Rv1 cells; Table 9): 1.2 µM
IC50 (LNCaP cells; [5]): 1.5 µM
IC50 (PC-3 cells; [6]): 2.2 µM

Structure (SMILES): COc1ccc(C=CC(=O)C(=Cc2ccc(OC)c(O)c2)C(=O)C=CC2=C(C)CCCC2(C)C)cc1O [Compound 11]
IC50 (C4-2B cells; [7]): 4.5 µM
IC50 (22Rv1 cells; Table 2, 72 h): 5.2 µM
IC50 (LNCaP cells; [8]): 7.3 µM
IC50 (PC-3 cells; [9]): 29.2 µM

Structure (SMILES): COc1ccc(/C=C/C(O)=C/C(=O)/C=C/C2=C(C)CCCC2(C)C)cc1O [Compound 2]
IC50 (C4-2B cells; [10]): 23.1 µM
IC50 (LNCaP cells; [11]): 25.9 µM
IC50 (PC-3 cells; [12]): 38.3 µM

Structure (SMILES): COc1ccc(/C=C/C(=O)/C(=C/c2ccc(OC)nc2)C(=O)/C=C/C2=C(C)CCCC2(C)C)cn1 [Compound 17]
IC50 (C4-2B cells; [7]): 12.2 µM
IC50 (22Rv1 cells; Table 2, 72 h): 9.9 µM
IC50 (LNCaP cells; [8]): 15.7 µM
IC50 (PC-3 cells; [9]): 31 µM

Structure (SMILES): COc1cc(/C=C/C(=O)/C(=C/c2ccc3ccccc3n2)C(=O)/C=C/C2=C(C)CCCC2(C)C)ccc1O [Compound 20]
IC50 (C4-2B cells; [7]): 5.3 µM
IC50 (22Rv1 cells; Table 2, 72 h): 5.1 µM
IC50 (LNCaP cells; [8]): 8.5 µM
IC50 (PC-3 cells; [9]): 15.2 µM

Structure (SMILES): CC(=O)/C=C/C1=C(C)CCCC1(C)C [β-Ionone, reference compound]
IC50 (LNCaP cells; [8]): 151 µM
IC50 (LNCaP cells; read-out: Cytotoxicity, IC50 (μM) LNCaP, Table 5): 151 µM
Cellular IC50 (μM) PC-3 (PC-3 cells; Table 2, 72 h, max tested 50 μM (β-ionone 150 μM)): Inactive^e
Cytotoxicity, IC50 (μM) PC-3 (PC-3 cells; Table 5, β-ionone max tested 150 μM): Inactive^b

Structure (SMILES): COc1ccc(/C=C/C(O)=C/C(=O)/C=C/C2=C(C)CCCC2(C)C)cc1OC [Compound 3]
IC50 (C4-2B cells; [10]): 30.6 µM
IC50 (LNCaP cells; [11]): 26.4 µM
IC50 (PC-3 cells; [12]): 47.9 µM

Now from value to molecule, other results behind:

IC50 (22Rv1 cells; Table 8): 4.5 µM
IC50 (LNCaP cells; [2]): 3.5 µM
IC50 (PC-3 cells; [3]): 7.2 µM
Structure (SMILES): CC1=C(/C=C/C(=O)/C=C/c2cc(F)ccc2F)C(C)(C)CCC1O (stereo not shown) [Compound B66]
IC50 (C4-2B cells; [1]): 6.9 µM

IC50 (22Rv1 cells; Table 9): 4.7 µM
IC50 (LNCaP cells; [5]): 3.8 µM
IC50 (PC-3 cells; [6]): 8.6 µM
Structure (SMILES): CCn1c2ccccc2c2cc(/C=C/C(=O)/C=C/C3=CC(O)CCC3(C)C)ccc21 (stereo not shown) [Compound B91]

IC50 (22Rv1 cells; Table 8): 10.4 µM
IC50 (LNCaP cells; [2]): 10.4 µM
IC50 (PC-3 cells; [3]): 11.5 µM
Structure (SMILES): CC1=C(/C=C/C(=O)/C=C/c2ccc(Oc3ccccc3)cc2)C(C)(C)CCC1O (stereo not shown) [Compound B56]
IC50 (C4-2B cells; [1]): 7.5 µM

IC50 (LNCaP cells; [2]): 2.4 µM
IC50 (PC-3 cells; [3]): 2 µM
Structure (SMILES): CC1=C(/C=C/C(=O)/C=C/c2cccc(Oc3ccccc3)c2)C(C)(C)CCC1O (stereo not shown) [Compound B48]

IC50 (22Rv1 cells; Table 8): 20.3 µM
IC50 (LNCaP cells; [2]): 13.3 µM
Cellular IC50 (μM) PC3 (PC-3 cells): Int
Structure (SMILES): COc1ccc(/C=C/C(=O)/C=C/C2=C(C)C(O)CCC2(C)C)cc1 (stereo not shown) [Compound B53]
IC50 (C4-2B cells; [1]): 10.3 µM

IC50 (LNCaP cells; [5]): 1.1 µM
IC50 (PC-3 cells; [6]): 3.2 µM
Structure (SMILES): CC1(C)CCC(O)C=C1/C=C/C(=O)/C=C/c1ccc2c(c1)OC(F)(F)O2 (stereo not shown) [Compound B77]

IC50 (22Rv1 cells; Table 9): 7.3 µM
IC50 (LNCaP cells; [5]): 3.8 µM
IC50 (PC-3 cells; [6]): 10.6 µM
Structure (SMILES): Cc1ccc2[nH]cc(/C=C/C(=O)/C=C/C3=CC(O)CCC3(C)C)c2c1 (stereo not shown) [Compound B82]
IC50 (C4-2B cells; [4]): 6.8 µM

IC50 (22Rv1 cells; Table 8): 4.3 µM
IC50 (LNCaP cells; [2]): 1.4 µM
IC50 (PC-3 cells; [3]): 6.9 µM
Structure (SMILES): CC1=C(/C=C/C(=O)/C=C/c2ccc(N(CCO)CCO)cc2)C(C)(C)CCC1O (stereo not shown) [Compound B62]
IC50 (C4-2B cells; [1]): 1.7 µM

IC50 (LNCaP cells; [2]): 1.4 µM
IC50 (PC-3 cells; [3]): 1.7 µM
Structure (SMILES): CC1=C(/C=C/C(=O)/C=C/c2cccc(OC(F)(F)F)c2)C(C)(C)CCC1O (stereo not shown) [Compound B46]

IC50 (22Rv1 cells; Table 8): 4.6 µM
IC50 (LNCaP cells; [2]): 2.5 µM
IC50 (PC-3 cells; [3]): 7.6 µM
Structure (SMILES): CC1=C(/C=C/C(=O)/C=C/c2ccccc2C)C(C)(C)CCC1O (stereo not shown) [Compound B64]
IC50 (C4-2B cells; [1]): 2.7 µM

IC50 (22Rv1 cells; Table 9): 9.5 µM
IC50 (LNCaP cells; [5]): 7 µM
IC50 (PC-3 cells; [6]): 19.8 µM
Structure (SMILES): Cn1c(/C=C/C(=O)/C=C/C2=CC(O)CCC2(C)C)cc2ccccc21 (stereo not shown) [Compound B80]

IC50 (22Rv1 cells; Table 8): 10.6 µM
IC50 (LNCaP cells; [2]): 8.9 µM
Cellular IC50 (μM) PC3 (PC-3 cells): Int
Structure (SMILES): CC1=C(/C=C/C(=O)/C=C/c2ccc(O)cc2)C(C)(C)CCC1O (stereo not shown) [Compound B52]

IC50 (LNCaP cells; [2]): 1.3 µM
IC50 (PC-3 cells; [3]): 6.6 µM
Structure (SMILES): CC1=C(/C=C/C(=O)/C=C/c2ccc(OC(F)(F)F)cc2)C(C)(C)CCC1O (stereo not shown) [Compound B54]
